In ChEMBL document CHEMBL3046211, “Synthesis, antimicrobial, analgesic activity, and molecular docking studies of novel 1-(5,7-dichloro-1,3-benzoxazol-2-yl)-3-phenyl-1H-pyrazole-4-carbaldehyde derivatives” (2013):
Converted amounts (≈) assume the structure as drawn.

How the values were obtained:
Staphylococcus aureus [1] = experiment: Antibacterial activity against Staphylococcus aureus pateint isolate; type: functional
Mus musculus = experiment: Analgesic activity in Swiss albino mouse assessed as protection against acetic acid-induced writhing at 100 mg/kg, po administered 1 hr prior to acetic acid-challenge measured after 5 mins for 20 mins relative to control; type: functional
Escherichia coli [2] = experiment: Antibacterial activity against Escherichia coli pateint isolate at 40 ug/ml after 24 hrs by agar well diffusion method; type: functional
Aspergillus niger [3] = experiment: Antifungal activity against Aspergillus niger at 40 ug/ml after 72 hrs by agar well diffusion method; type: functional; conditions: read-out: IZ
Aspergillus niger [4] = experiment: Antifungal activity against Aspergillus niger; type: functional
Staphylococcus aureus [5] = experiment: Antibacterial activity against Staphylococcus aureus pateint isolate at 40 ug/ml after 24 hrs by agar well diffusion method; type: functional; conditions: read-out: IZ
Candida albicans [6] = experiment: Antifungal activity against Candida albicans at 40 ug/ml after 72 hrs by agar well diffusion method; type: functional; conditions: read-out: IZ
Bacillus subtilis [7] = experiment: Antibacterial activity against Bacillus subtilis pateint isolate; type: functional
Bacillus subtilis [8] = experiment: Antibacterial activity against Bacillus subtilis pateint isolate at 40 ug/ml after 24 hrs by agar well diffusion method; type: functional; conditions: read-out: IZ
Candida albicans [9] = experiment: Antifungal activity against Candida albicans; type: functional
Salmonella typhi [10] = experiment: Antibacterial activity against Salmonella typhi pateint isolate at 40 ug/ml after 24 hrs by agar well diffusion method; type: functional, Salmonella enterica subsp. enterica serovar Typhi; conditions: Salmonella enterica, read-out: IZ
Salmonella typhi [11] = experiment: Antibacterial activity against Salmonella typhi pateint isolate; type: functional, Salmonella enterica subsp. enterica serovar Typhi; conditions: Salmonella enterica
Escherichia coli [12] = experiment: Antibacterial activity against Escherichia coli pateint isolate; type: functional
Salmonella typhi [13] = experiment: Antibacterial activity against Salmonella typhi pateint isolate at 40 ug/100 ul after 24 hrs by agar well diffusion method; type: functional, Salmonella enterica subsp. enterica serovar Typhi
Aspergillus niger [14] = experiment: Antifungal activity against Aspergillus niger at 40 ug/100 ul after 72 hrs by agar well diffusion method; type: functional
Candida albicans [15] = experiment: Antifungal activity against Candida albicans at 40 ug/100 ul after 72 hrs by agar well diffusion method; type: functional

For `O=Cc1cn(-c2nc3cc(Cl)cc(Cl)c3o2)nc1-c1ccc(O)cc1`, the MIC (Staphylococcus aureus [1]) was 20 µg/mL (≈ 53.4 µM), the Activity (Mus musculus) was 55.78% and the “inhibition zone (IZ)” value (Escherichia coli [2]) was 22 mm. For the same molecule, the zone of inhibition at 40 µg/mL (Aspergillus niger [3]) was 22 mm, the MIC (Aspergillus niger [4]) was 30 µg/mL (≈ 80.2 µM) and the zone of inhibition at 40 µg/mL (Staphylococcus aureus [5]) was 23 mm. The zone of inhibition at 40 µg/mL (Candida albicans [6]) was 22 mm, the MIC (Bacillus subtilis [7]) was 20 µg/mL (≈ 53.4 µM) and the zone of inhibition at 40 µg/mL (Bacillus subtilis [8]) was 23 mm. It also gave an MIC (Candida albicans [9]) of 20 µg/mL (≈ 53.4 µM), a zone of inhibition at 40 µg/mL (Salmonella typhi [10]) of 21 mm and an MIC (Salmonella typhi [11]) of 30 µg/mL (≈ 80.2 µM). The MIC (Escherichia coli [12]) was 30 µg/mL (≈ 80.2 µM).

With `Cc1ccc(-c2nn(-c3nc4cc(Cl)cc(Cl)c4o3)cc2C=O)cc1` the MIC (Staphylococcus aureus [1]) was 30 µg/mL (≈ 80.6 µM), the Activity (Mus musculus) was 51.4% and the “inhibition zone (IZ)” value (Escherichia coli [2]) was 21 mm. The zone of inhibition at 40 µg/mL (Aspergillus niger [3]) was 19 mm, the MIC (Aspergillus niger [4]) was 30 µg/mL (≈ 80.6 µM) and the zone of inhibition at 40 µg/mL (Staphylococcus aureus [5]) was 21 mm. For the same molecule, the zone of inhibition at 40 µg/mL (Candida albicans [6]) was 19 mm, the MIC (Bacillus subtilis [7]) was 30 µg/mL (≈ 80.6 µM) and the zone of inhibition at 40 µg/mL (Bacillus subtilis [8]) was 20 mm. For the same molecule, the MIC (Candida albicans [9]) was 30 µg/mL (≈ 80.6 µM), the zone of inhibition at 40 µg/mL (Salmonella typhi [10]) was 20 mm and the MIC (Salmonella typhi [11]) was 30 µg/mL (≈ 80.6 µM). It also gave an MIC (Escherichia coli [12]) of 40 µg/mL (≈ 107 µM).

In the case of `O=Cc1cn(-c2nc3cc(Cl)cc(Cl)c3o2)nc1-c1ccc(Br)cc1`, the MIC (Staphylococcus aureus [1]) is reported as 20 µg/mL (≈ 45.8 µM), the Activity (Mus musculus) is reported as 54.63% and the “inhibition zone (IZ)” value (Escherichia coli [2]) is reported as 22 mm. It also gave a zone of inhibition at 40 µg/mL (Aspergillus niger [3]) of 22 mm, an MIC (Aspergillus niger [4]) of 20 µg/mL (≈ 45.8 µM) and a zone of inhibition at 40 µg/mL (Staphylococcus aureus [5]) of 23 mm. For the same molecule, the zone of inhibition at 40 µg/mL (Candida albicans [6]) was 23 mm, the MIC (Bacillus subtilis [7]) was 20 µg/mL (≈ 45.8 µM) and the zone of inhibition at 40 µg/mL (Bacillus subtilis [8]) was 22 mm. The MIC (Candida albicans [9]) was 30 µg/mL (≈ 68.6 µM), the zone of inhibition at 40 µg/mL (Salmonella typhi [10]) was 21 mm and the MIC (Salmonella typhi [11]) was 30 µg/mL (≈ 68.6 µM). For the same molecule, the MIC (Escherichia coli [12]) was 20 µg/mL (≈ 45.8 µM).

In the case of `O=Cc1cn(-c2nc3cc(Cl)cc(Cl)c3o2)nc1-c1ccc(Cl)c(Cl)c1`, the MIC (Staphylococcus aureus [1]) is reported as 30 µg/mL (≈ 70.2 µM), the Activity (Mus musculus) is reported as 50% and the “inhibition zone (IZ)” value (Escherichia coli [2]) is reported as 22 mm. It also gave a zone of inhibition at 40 µg/mL (Aspergillus niger [3]) of 22 mm, an MIC (Aspergillus niger [4]) of 40 µg/mL (≈ 93.7 µM) and a zone of inhibition at 40 µg/mL (Staphylococcus aureus [5]) of 22 mm. It also gave a zone of inhibition at 40 µg/mL (Candida albicans [6]) of 22 mm, an MIC (Bacillus subtilis [7]) of 30 µg/mL (≈ 70.2 µM) and a zone of inhibition at 40 µg/mL (Bacillus subtilis [8]) of 22 mm. It also gave an MIC (Candida albicans [9]) of 40 µg/mL (≈ 93.7 µM), a zone of inhibition at 40 µg/mL (Salmonella typhi [10]) of 20 mm and an MIC (Salmonella typhi [11]) of 30 µg/mL (≈ 70.2 µM). It also gave an MIC (Escherichia coli [12]) of 30 µg/mL (≈ 70.2 µM).

For `COc1ccc(-c2nn(-c3nc4cc(Cl)cc(Cl)c4o3)cc2C=O)cc1`, the MIC (Staphylococcus aureus [1]) was 30 µg/mL (≈ 77.3 µM), the Activity (Mus musculus) was 50.27% and the “inhibition zone (IZ)” value (Escherichia coli [2]) was 22 mm. It also gave a zone of inhibition at 40 µg/mL (Aspergillus niger [3]) of 20 mm, an MIC (Aspergillus niger [4]) of 30 µg/mL (≈ 77.3 µM) and a zone of inhibition at 40 µg/mL (Staphylococcus aureus [5]) of 19 mm. For the same molecule, the zone of inhibition at 40 µg/mL (Candida albicans [6]) was 20 mm, the MIC (Bacillus subtilis [7]) was 40 µg/mL (≈ 103 µM) and the zone of inhibition at 40 µg/mL (Bacillus subtilis [8]) was 20 mm. The MIC (Candida albicans [9]) was 40 µg/mL (≈ 103 µM), the zone of inhibition at 40 µg/mL (Salmonella typhi [10]) was 19 mm and the MIC (Salmonella typhi [11]) was 40 µg/mL (≈ 103 µM). The MIC (Escherichia coli [12]) was 40 µg/mL (≈ 103 µM).

Work on `CC(=O)Oc1ccccc1C(=O)O` [ASPIRIN] yielded an Activity (Mus musculus) of 58.74%.

For `O=C(O)c1cn(C2CC2)c2cc(N3CCNCC3)c(F)cc2c1=O` [CIPROFLOXACIN], the “inhibition zone (IZ)” value (Salmonella typhi [13]) was 21 mm.

`OC(Cn1cncn1)(Cn1cncn1)c1ccc(F)cc1F` [FLUCONAZOLE] was tested, and the “inhibition zone (IZ)” value (Aspergillus niger [14]) was 22 mm and the “inhibition zone (IZ)” value (Candida albicans [15]) was 23 mm.
